Four compounds from patent publication US7998990B2, “5-phenyl-thiazol-2-yl-urea derivatives and use as PI3 kinase inhibitors” (Novartis AG, priority 2006, dated 2011) can be followed below.

The target in this experiment is T1, phosphatidylinositol 3-kinase gamma isoform (p110?), recombinant GST-p110? (Homo sapiens, UniProt P48736).
T1 construct: made in house; host or cells: Sf9 (Spodoptera frugiperda) insect cells, baculovirus
Put plainly: PI3K gamma in vitro kinase assay (Scintillation Proximity Assay, phosphate transfer from ATP to phosphatidylinositol). The experiment is classed as biochemical. The settings on record: for IC50: gamma isoform, fluorinated Example compound. The source says:
Compounds of formula I and their pharmaceutically acceptable salts, hereinafter referred to alternatively as agents of the invention, are useful as pharmaceuticals.
Baculovirus expressing different fragments of PI3K? fused to GST have been previously described by Stoyanova, S., Bulgarelli-Leva, G., Kirsch, C., Hanck, T., Klinger, R., Wetzker, R., Wymann, M. P. (1997) Lipid- and protein kinase activities of G protein-coupled PI 3-kinase g: structure-activity analysis and interactions with wortmannin. Biochem. J., 324:489. Residues 38-1102 of human PI3K? are subcloned into the BamH1 and EcoR1 sites of the transfer vector pAcG2T (Pharmingen) to create a GST-PI3K? lacking the first 37 residues of PI3K?. To express the recombinant protein, Sf9 (Spodoptera frugiperda 9) insect cells are routinely maintained at densities between 3×10^5 and 3×10^6 cells/ml in serum containing TNMFH medium (Sigma). Sf9 cells, at a density of 2×10^6 are infected with human GST-PI3K[…] 34 baculovirus at a multiplicity of infection (m.o.i.) of 1 for 72 hours. The infected cells are harvested by centrifugation at 1400 g for 4 minutes at 4° C. and the cell pellets are frozen at −80° C. Both Sf9 and Sf21 cells work equally well. Sf9 cells (1×10^9) are resuspended in 100 ml cold (4° C.) lysis buffer (50 mM Tris-HCl pH 7.5, 1% Triton X-100, 150 mM NaCl, 1 mM NaF, 2 mM DTT and protease inhibitors. Cells are incubated on ice for 30 minutes then centrifuged at 15000 g for 20 minutes at 4° C. Purification of the supernatant sample is carried out at 4° C. by affinity chromatography using SEPHAROSE™ agarose gel beads coupled to glutathione (from Amersham Pharmacia Biotech). A cell lysate/GST resin ratio of 50:1 is used. The GST resin is firstly pre-rinsed to remove ethanol preservative and then equilibrated with lysis buffer. Cell lysate (supernatant) is added (usually as 50 ml lysate to 1 ml GST resin in 50 ml tubes) and gently rotated on a mixer at 4° C. for 2-3 hours. The unbound flow through sample is collected by centrifugation at 1000 g for 5 minutes at 4° C. using a DENLEY™ centrifuge. The 1 ml GST resin containing bound material is transferred to a 15 ml FALCON™ centrifuge tube for subsequent washing and elution steps. Firstly a series of 3 cycles of washings (mixing by gentle inversion) is performed with 15 ml ice cold wash Buffer A (50 mM Tris-HCl pH 7.5, 1% Triton X-100, 2 mM DTT) interspersed with centrifugation at 1000 g for 5 minutes at 4° C. A final single wash step is performed with 15 ml ice cold wash Buffer B (50 mM Tris-HCl pH 7.5, 2 mM DTT) and then centrifuged at 1000 g for 5 minutes at 4° C. The washed GST resin is finally eluted with 4 cycles of 1 ml ice cold elution buffer (50 mM Tris-HCl pH 7.5, 10 mM reduced glutathione, 2 mM DTT, 150 mM NaCl, 1 mM NaF, 50% ethylene glycol and protease inhibitors) interspersed with centrifugation at 1000 g for 5 minutes at 4° C. Samples are aliquoted and stored at −20° C.
An in vitro kinase assay was established that measures the transfer of the terminal phosphate of adenosine triphosphate to phosphatidylinositol. The kinase reaction is performed in a white 96 well microtitre plate as a Scintillation Proximity Assay. Each well contains 10 μl test compound in 5% dimethylsulphoxide and 20 μl assay mix (40 mM Tris, 200 mM NaCl, 2 mM ethyleneglycol-aminoethyl-tetraacetic acid (EGTA), 15 μg/ml phosphatidylinositol, 12.5 μM adenosine triphosphate (ATP), 25 mM MgCl2, 0.1 μCi [^33P]ATP). […]

T1 sequence (P48736 38-1102): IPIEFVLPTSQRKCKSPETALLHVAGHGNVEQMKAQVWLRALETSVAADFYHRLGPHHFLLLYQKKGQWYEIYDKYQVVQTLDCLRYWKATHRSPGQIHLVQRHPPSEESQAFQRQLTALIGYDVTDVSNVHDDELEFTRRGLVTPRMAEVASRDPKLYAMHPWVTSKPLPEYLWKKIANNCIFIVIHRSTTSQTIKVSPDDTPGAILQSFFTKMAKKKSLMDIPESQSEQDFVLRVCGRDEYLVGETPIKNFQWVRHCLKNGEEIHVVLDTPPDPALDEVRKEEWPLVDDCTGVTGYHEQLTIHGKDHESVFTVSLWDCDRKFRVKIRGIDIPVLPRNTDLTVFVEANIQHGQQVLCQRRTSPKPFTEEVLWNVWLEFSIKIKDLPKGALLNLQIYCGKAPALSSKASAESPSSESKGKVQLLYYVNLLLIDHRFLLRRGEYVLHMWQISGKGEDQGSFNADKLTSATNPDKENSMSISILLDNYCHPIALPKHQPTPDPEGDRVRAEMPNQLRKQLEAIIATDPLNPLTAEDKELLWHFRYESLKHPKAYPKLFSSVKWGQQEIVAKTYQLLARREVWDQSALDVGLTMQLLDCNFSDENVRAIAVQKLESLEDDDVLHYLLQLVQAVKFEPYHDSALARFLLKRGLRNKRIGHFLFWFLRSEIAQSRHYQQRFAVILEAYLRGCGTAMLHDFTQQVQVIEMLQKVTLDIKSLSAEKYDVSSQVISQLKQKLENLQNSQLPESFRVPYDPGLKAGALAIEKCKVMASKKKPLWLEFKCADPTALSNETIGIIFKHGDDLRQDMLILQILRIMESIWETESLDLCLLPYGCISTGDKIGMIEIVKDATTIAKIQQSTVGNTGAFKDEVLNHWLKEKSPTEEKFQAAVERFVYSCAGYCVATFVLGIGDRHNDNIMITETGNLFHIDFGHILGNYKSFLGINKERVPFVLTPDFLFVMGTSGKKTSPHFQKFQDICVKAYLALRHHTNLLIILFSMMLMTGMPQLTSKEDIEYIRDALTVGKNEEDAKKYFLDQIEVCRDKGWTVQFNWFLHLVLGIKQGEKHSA

As to “N-(2-Fluoro-1,1-dimethyl-ethyl-3-{3-[5-(3-fluoro-4-methanesulfonyl-phenyl)-4-methyl-thiazol-2-yl]-ureido}-propionamide [compound 1]”, the IC50 was 0.046 µM.

As for `Cc1nc(NC(=O)NCCc2nnn(CCF)n2)sc1-c1ccc(S(C)(=O)=O)c(F)c1` [compound 8, 1-{2-[2-(2-Fluoro-ethyl)-2H-tetrazol-5-yl]-ethyl}-3-[5-(3-fluoro-4-methanesulfonyl-phenyl)-4-methyl-thiazol-2-yl]-urea], the IC50 was 0.01 µM. For the same compound, under “fold, from IC50 (?) values of the table”, the “increase in activity over the corresponding compound described in WO0521519” value is “four-fold”.

Consider `Cc1nc(NC(=O)NCCC(=O)NCC(F)F)sc1-c1ccc(S(C)(=O)=O)c(F)c1` [compound 2, N-(2,2-Difluoroethyl)-3-{3-[5-(3-fluoro-4-methanesulfonyl-phenyl)-4-methyl-thiazol-2-yl]-ureido}-propionamide], for which the IC50 amounted to 0.028 µM.

Consider `Cc1nc(NC(=O)NCCc2cn(CCF)cn2)sc1-c1ccc(S(C)(=O)=O)c(F)c1` [compound 7, 1-{2-[1-(2-Fluoro-ethyl)-1H-imidazol-4-yl]-ethyl}-3-[5-(3-fluoro-4-methanesulfonyl-phenyl)-4-methyl-thiazol-2-yl]-urea], for which the IC50 amounted to 0.028 µM.
